Results from US7429673B2, “TRPV1 agonists, formulations containing them and uses thereof” (priority 2004, dated 2008).
Like-named read-outs stand apart in the source and are kept apart here.

Columns and labels:
[1] = biological target: T1, human TRPV1 (Homo sapiens, UniProt Q8NER1); experiment: intracellular calcium in HEK-293 cells overexpressing human TRPV1; type: cell-based; details: 4 μM ionomycin as maximum reference
T1 construct: expressed in transfected cells; host or cells: HEK-293

[2] = tested on: Sprague Dawley rats; experiment: in vivo test of induced urinary incontinence (partial urethral obstruction); set-up: species or system rat; details: operated rats; for N^o of minctions per hour: 8 weeks after urethral obstruction, instilled in the bladder in ethanol at 50 nM for 30 min; for number of minctions per hour, result in words: instilled in the bladder at 50 nM for 30 min
Method: The activity of the compound of example 2 was also evaluated in rats through the in vivo test of induced urinary incontinence.
Sprague Dawley rats (250±10 g) were anaesthetized with chloral hydrate. The urinary bladder was opened through an incision along the abdomen median line, and the adipose tissue surrounding the urethra and ureters was removed. The proximal urethra was then tied up with non-absorbable surgery thread to create partial urethral obstruction.
On the treatment day, the compound of example 2, the compound prepared according to Appendino et al. and resiniferotoxin as the reference standard were solubilised in ethanol and instilled in the bladder at the concentration of 50 nM. The instillation lasted 30 min: during this period the infusion pump for the saline was turned off. After incubation, the bladder was emptied of any medicament solution, then the infusion pump was turned on again.

[3] = in DMSO, read-out: pEC50 DMSO (pEC50 values for TPVR1) (converted)
[4] = in methanol, read-out: pEC50 methanol (pEC50 values for TPVR1) (converted)

T1 sequence (Q8NER1 whole entry): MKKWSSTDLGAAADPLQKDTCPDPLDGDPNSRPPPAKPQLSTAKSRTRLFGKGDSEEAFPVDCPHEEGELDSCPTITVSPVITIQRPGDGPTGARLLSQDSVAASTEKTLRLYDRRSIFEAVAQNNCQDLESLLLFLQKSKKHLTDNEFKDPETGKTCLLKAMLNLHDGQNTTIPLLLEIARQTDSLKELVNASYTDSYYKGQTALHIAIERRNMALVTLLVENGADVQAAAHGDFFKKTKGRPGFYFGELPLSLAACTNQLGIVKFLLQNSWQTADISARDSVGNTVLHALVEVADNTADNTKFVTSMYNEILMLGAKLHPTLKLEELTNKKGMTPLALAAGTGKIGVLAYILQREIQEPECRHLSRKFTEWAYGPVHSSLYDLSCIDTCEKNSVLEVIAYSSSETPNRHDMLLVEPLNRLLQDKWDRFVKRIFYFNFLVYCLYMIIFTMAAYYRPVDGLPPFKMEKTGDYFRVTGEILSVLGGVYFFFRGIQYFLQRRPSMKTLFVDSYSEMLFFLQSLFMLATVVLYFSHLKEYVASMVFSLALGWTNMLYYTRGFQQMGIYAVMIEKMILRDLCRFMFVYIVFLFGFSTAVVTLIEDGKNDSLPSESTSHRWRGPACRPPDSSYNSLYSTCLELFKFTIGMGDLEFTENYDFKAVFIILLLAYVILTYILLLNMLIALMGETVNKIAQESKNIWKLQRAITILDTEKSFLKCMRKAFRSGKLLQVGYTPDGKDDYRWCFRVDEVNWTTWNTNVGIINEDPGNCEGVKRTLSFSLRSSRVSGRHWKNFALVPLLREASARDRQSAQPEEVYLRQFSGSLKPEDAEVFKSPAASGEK

Row | SMILES | EC50 [1, 3] [nM] | EC50 [1, 4] [nM] | N^o of minctions per hour [2] [per hour] | number of minctions per hour, result in words [2] | further results
1 | CCCCCC[C@H](CC1OC1CCCCCCCC(=O)NCc1ccc(O)c(OC)c1)OC(=O)Cc1ccccc1 (some centres unmarked) [Compound of example 15, 9,10-Epoxy-12-Phenylacetyl Rinvanil] | 5.37 | 4.07 |  |  | 
2 | CCCCCC[C@H](C/C=C\CCCCCCCC(=O)NCc1ccc(O)c(OC)c1)OC(=O)c1ccccc1 [Compound of example 9, 12-Benzoyl Rinvanil] | 0.129 | 0.288 |  |  | 
3 | C=C(C)[C@]12C[C@@H](C)[C@@]34O[C@](Cc5ccccc5)(O[C@@H]1[C@@H]3C=C(COC(=O)Cc1ccc(O)c(OC)c1)C[C@]1(O)C(=O)C(C)=C[C@@H]41)O2 [Resiniferotoxin, resiniferotoxin, reference compound] |  |  | 17 ± 2 | remained similar to that of non-operated animals | 
4 | CCCCCC[C@H](C/C=C\CCCCCCCC(=O)NCc1ccc(O)c(OC)c1)OC(C)=O | 0.501 |  |  |  | pEC50 methanol (pEC50 values for TPVR1) ([1]; in methanol): 9.40 ± 0.18
5 | CCCCCC[C@H](CC1CC1CCCCCCCC(=O)NCc1ccc(O)c(OC)c1)OC(=O)Cc1ccccc1 (some centres unmarked) [Compound of example 12, 9,10-Methylen-12-Phenylacetyl Rinvanil I] | 0.12 | 0.158 |  |  | 
6 | CCCCCC[C@H](C/C=C\CCCCCCCC(=O)NCc1ccc(O)c(OC)c1)OC(=O)Cc1ccccc1 [Compound of example 2, 12-Phenylacetyl Rinvanil] |  |  | 19 ± 2 | remained similar to that of non-operated animals | EC50 ([1]; pEC50 DMSO (pEC50 values for TPVR1), in DMSO): 0.102 nM; EC50 ([1]; pEC50 methanol (pEC50 values for TPVR1), in methanol): 0.0661 nM
